Results reported in paper PMC11267380, “USP25 Elevates SHLD2‐Mediated DNA Double‐Strand Break Repair and Regulates Chemoresponse in Cancer” (Advanced Science, 2024).

How the values were obtained:
[1] = target: T1, USP25 (Homo sapiens, UniProt Q9UHP3); test: Surface Plasmon Resonance (SPR) analysis of peptide binding; settings: result in words; for binding affinity for USP25: Figure 7a, Figure S7a-c
T1 sequence (Q9UHP3 1-1055): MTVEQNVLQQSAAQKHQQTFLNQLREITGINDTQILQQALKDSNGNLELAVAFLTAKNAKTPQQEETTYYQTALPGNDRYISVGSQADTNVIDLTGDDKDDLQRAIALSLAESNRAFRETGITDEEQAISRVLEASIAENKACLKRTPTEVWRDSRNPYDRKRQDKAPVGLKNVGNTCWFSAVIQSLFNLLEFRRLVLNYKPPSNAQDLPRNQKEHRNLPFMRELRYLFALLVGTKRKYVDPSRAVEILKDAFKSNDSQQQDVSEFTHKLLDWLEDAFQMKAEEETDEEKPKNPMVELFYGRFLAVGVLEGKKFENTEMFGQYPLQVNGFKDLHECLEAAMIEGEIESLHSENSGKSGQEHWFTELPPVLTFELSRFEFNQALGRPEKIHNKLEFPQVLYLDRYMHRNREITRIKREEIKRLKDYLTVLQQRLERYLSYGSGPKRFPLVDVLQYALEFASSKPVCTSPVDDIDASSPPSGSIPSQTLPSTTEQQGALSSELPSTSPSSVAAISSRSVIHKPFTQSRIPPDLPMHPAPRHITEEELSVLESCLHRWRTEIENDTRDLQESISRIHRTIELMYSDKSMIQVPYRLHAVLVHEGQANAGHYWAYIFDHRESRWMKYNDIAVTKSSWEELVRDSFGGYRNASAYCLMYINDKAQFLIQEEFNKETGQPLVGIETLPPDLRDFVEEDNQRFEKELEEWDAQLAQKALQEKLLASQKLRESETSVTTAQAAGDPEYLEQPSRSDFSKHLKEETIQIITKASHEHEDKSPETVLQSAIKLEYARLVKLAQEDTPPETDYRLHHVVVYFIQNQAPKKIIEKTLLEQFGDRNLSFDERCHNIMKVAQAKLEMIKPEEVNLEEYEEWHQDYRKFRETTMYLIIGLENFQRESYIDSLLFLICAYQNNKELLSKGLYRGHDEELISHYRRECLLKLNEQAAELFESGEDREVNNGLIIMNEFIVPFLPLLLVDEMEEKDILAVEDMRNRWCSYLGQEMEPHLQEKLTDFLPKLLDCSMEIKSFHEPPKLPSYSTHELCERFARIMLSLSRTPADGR
Protocol: Figure 7 Disturbing the USP25 and SHLD2 interaction counteracts colon cancer progression. a) The kinetic interaction of SH‐4 and USP25 was assessed using surface plasmon resonance (SPR) analyses. b) Co‐immunoprecipitation assays (Co‐IP) were performed to detect the interaction between USP25 and SHLD2 in HEK293T cells treated with indicated peptides. c) NHEJ repair capacity of HEK293T cells treated with indicated peptides was subjected using a reporter assay. d) Representative micrographs of GFP‐SHLD2 foci and e) quantification were shown following irradiation and indicated peptide treatment. Cells were stained with anti‐GFP antibodies. f) The highest‐scoring Dock model of the SH‐4 and USP25 complex is shown. Left: the surface of SH‐4 (green) and USP25 complex. Right: the 3D structure of SH‐4 (green) and USP25 complex. g) The effect of indicated peptides(20 µM) in combination with 5‐Fu (0, 0.1, 0.5, 1, 3 µM) on the chemosensitivity of SW620 cells was determined. h‐l) Xenograft tumor formation by SW620 cells in mice that were untreated or treated with PSH‐4 and 5‐Fu or each treatment alone was analyzed. A h) schematic model, i) representative tumor images, j) tumor volume over time, k) tumor weight, and l) HE or Ki67 staining assay were presented (n = 5 animals). m) A schematic model for generating patient‐derived tumor xenografts of colorectal adenocarcinoma (COAD) was provided. n) Western blots showing USP25 levels in COAD patient tumors (patients 1–3) were presented. o) Representative immunohistochemistry (IHC) micrographs showing USP25 expression in COAD patient‐derived tumors were provided. p–s) The PDX xenograft in mice that were untreated or treated with PSH‐4([…] ) and 5‐Fu ([…] ) or each treatment alone were analyzed. Representative p) tumor images, q) tumor volume over time, r) tumor weight, and s) HE or Ki67 staining assay were presented (n = 6 animals). Statistical analysis was performed using one‐way ANOVA followed by a Turkey's multiple comparison test (c,e,k,r) or two‐way ANOVA followed by a Turkey's multiple comparison test (g,j,q). TEXT PRINTED IN THE PICTURE: (a) SH-4: KD (M) 2.082*10^-5; kd (1/s) 0.00484 DOUBTS OF THE COPYIST ABOUT THIS PICTURE: SH-4, KD (M): the digits 2.082 and the exponent -5 are in small print, the 8 could be a 6 or a 3 / SH-4, kd (1/s): 0.00484 is in small print, the 8 could be a 6 or a 3
The amino acid (aa) sequences of peptides covering the SHLD2-binding region from USP25 are shown. The kinetic interaction of peptides and USP25 was determined by surface plasmon resonance (SPR) analyses.

[2] = system: RPA32 phosphorylation of Ser4/Ser8 in HEK293T cells; test: RPA32 phosphorylation immunoblot after etoposide, USP25-depleted cells; assay type: cell-based; settings: HEK293T stably expressing control or USP25 shRNA, Figure S2a
Protocol: a) HEK293T cells stably expressing control or USP25 shRNA were untreated and treaded with etopside at the indicated time point. Cells were lysed and lysates was performed with the indicated antibodies. b-c) Representative foci images and quantification of RPA32 (b) and RAD51 (c) were obtained in U2OS cells stably expressing control or USP25 shRNA with or without IR treatment (2Gy). n>80 in each group. d) USP25 was knocked down in ER-AsiSI U2OS cells by shRNA, and cell lysates were analyzed using the indicated antibodies. e) Schematic representation of Taqman qPCR primer design for measurement of DSB% at AsiSI sites located on chromosome1(Chr.1). The primer pairs of DNA resection are across BamHI restriction sites are marked by red arrows. ER-AsiSI U2OS cells stably expressing control and USP25 shRNA were treated with 300 nM 4- hydroxytamoxifen (4-OHT) for 4 h or mock treated and genomic DNA was then extracted and digested with BamHI overnight. The percentages of ssDNA at various distances (364nt, 1754nt and 3564nt) were measured by qPCR. f-h) Control and USP25 knockdown RKO cells transfected short interfering RNAs (siRNA) against SHLD2 were subjected to survival assays for CCK8 assay in response to IR (0, 1,1.5,2,2.5,3Gy), 5-Fu (0, 0.1,0.5,1,3µM) or cisplatin(0, 0.1,0.5,1,2,5µM). […]

[3] = system: RKO cells; test: CCK8 survival assay, control, USP25 knockdown and SHLD2-depleted RKO cells; assay type: cell-based; settings: 5-Fu (0, 0.1, 0.5, 1, 3 µM) or cisplatin (0, 0.1, 0.5, 1, 2, 5 µM)
Protocol: For long‐term proliferation, cells were seeded in triplicate in each well of 96‐well plates at a density of 1000 cells per well. After 24 h of culture, the cells were treated with the indicated doses of regents or peptides and incubated at 37 °C for 72 h. Subsequently, the medium was changed to a fresh medium containing cell counting kit‐8 solution (Dojindo, CK04), and the cells were placed in the incubator for an additional 1–2 h. The absorbance was measured at 450 nm using the SpectraMax M5 reader (Molecular Devices).
a) HEK293T cells stably expressing control or USP25 shRNA were untreated and treaded with etopside at the indicated time point. Cells were lysed and lysates was performed with the indicated antibodies. b-c) Representative foci images and quantification of RPA32 (b) and RAD51 (c) were obtained in U2OS cells stably expressing control or USP25 shRNA with or without IR treatment (2Gy). n>80 in each group. d) USP25 was knocked down in ER-AsiSI U2OS cells by shRNA, and cell lysates were analyzed using the indicated antibodies. e) Schematic representation of Taqman qPCR primer design for measurement of DSB% at AsiSI sites located on chromosome1(Chr.1). The primer pairs of DNA resection are across BamHI restriction sites are marked by red arrows. ER-AsiSI U2OS cells stably expressing control and USP25 shRNA were treated with 300 nM 4- hydroxytamoxifen (4-OHT) for 4 h or mock treated and genomic DNA was then extracted and digested with BamHI overnight. The percentages of ssDNA at various distances (364nt, 1754nt and 3564nt) were measured by qPCR. f-h) Control and USP25 knockdown RKO cells transfected short interfering RNAs (siRNA) against SHLD2 were subjected to survival assays for CCK8 assay in response to IR (0, 1,1.5,2,2.5,3Gy), 5-Fu (0, 0.1,0.5,1,3µM) or cisplatin(0, 0.1,0.5,1,2,5µM). Statistical analysis was performed using two-way ANOVA followed by a Turkey’s multiple comparison test (b,c,e,f,g,h) .

[4] = system: RKO and SW620 cells; test: CCK8 survival assay, USP25 knockdown USP25-high colon cancer cells; assay type: cell-based; settings: RKO: cisplatin (0, 0.5, 1, 3 µM), 5-Fu (0, 0.1, 0.5, 1, 3 µM), SW620: 5-Fu (0, 0.1, 0.5, 1, 3 µM), 72 h
Protocol: For long-term proliferation, cells were seeded in triplicate in each well of 96-well plates at a density of 1000 cells per well. After 24 h of culture, the cells were treated with the indicated doses of regents or peptides and incubated at 37 °C for 72 h. Subsequently, the medium was changed to a fresh medium containing cell counting kit-8 solution (Dojindo, CK04), and the cells were placed in the incubator for an additional 1-2 h. […] a) The mRNA expression levels of TRIM25, HECTD3, NEDD4L and WWP2 in human normal colon tissue samples (n=41) and colorectal adenocarcinoma tissue samples (n=286 COAD patients) from the Ualcan database were analyzed. b) The protein expression levels of USP25 were measured in HEK293T cells that stably expressed TRIM25 shRNA. c) NHEJ repair capacity of control or TRIM25 knockdown cells were subjected using a reporter assay. d-g) Immunoblot of USP25 in the RKO cells stably expressing control and USP25 shRNA. […] Statistical analysis was performed using t-test (a) or one-way ANOVA followed by a Turkey's multiple comparison test (c) or two-way ANOVA followed by a Turkey's multiple comparison test ([…]) .

[5] = system: NHEJ; test: NHEJ reporter assay, cells treated with AZ1; assay type: cell-based; settings: compared with USP25 depletion (decreased NHEJ); Figure S1h
[6] = system: HR; test: HR reporter assay, cells treated with AZ1; assay type: cell-based; settings: compared with USP25 depletion (increased HR); Figure S1i
[7] = target: T2, USP25 (as used for SPR) (UniProt Q9UHP3 1-1055); test: SPR
T2 chain: T1 sequence (Q9UHP3 1-1055)

[8] = target: T2, USP25 (as used for SPR); test: SPR

KNFNTNLFQLGHKCA [SH‐4, peptide designed based on the structure of the N‐terminus (aa 1–200) of SHLD2]
binding affinity for USP25 [1]: showed the binding affinity for USP25
relative binding affinity for USP25 among SH-1 to SH-4 [1]: higher affinity

COc1cc([C@@H]2c3cc4c(cc3[C@@H](O[C@@H]3O[C@@H]5CO[C@@H](C)O[C@H]5[C@H](O)[C@H]3O)[C@H]3COC(=O)[C@H]23)OCO4)cc(OC)c1O [etoposide]
RPA32 phosphorylation of Ser4/Ser8 on USP25 depletion [2]: promoted RPA32 phosphorylation of Ser4/Ser8

FTEEEKYQKLLSENK [SH‐3, peptide designed based on the structure of the N‐terminus (aa 1–200) of SHLD2]
binding affinity for USP25 [1]: showed the binding affinity for USP25

N.N.[Cl][Pt][Cl] [cisplatin]
sensitization by USP25 knockdown ([3]; Figure S2f-h): sensitized cells to IR, 5‐Fu, and cisplatin treatment
sensitization by USP25 knockdown in SHLD2-depleted cells ([3]; SHLD2 siRNA): didn't further lead cells to sensitize to these treatments
sensitization by USP25 knockdown, USP25-high cell lines [4]: sensitized the cells to IR, cisplatin, and 5‐Fu treatment

OCCNCc1cc(Br)ccc1OCc1ccc(F)c(C(F)(F)F)c1 [AZ1]
NHEJ after USP25 inhibition [5]: led to similar results as depletion of USP25 in cells
HR after USP25 inhibition [6]: led to similar results as depletion of USP25 in cells

EKQHKNLENYKVPESI [SH‐2, peptide designed based on the structure of the N‐terminus (aa 1–200) of SHLD2]
binding affinity for USP25 [1]: showed the binding affinity for USP25

MSVADPWKKIQLLYS [SH‐1, peptide designed based on the structure of the N‐terminus (aa 1–200) of SHLD2]
binding affinity for USP25 [1]: showed the binding affinity for USP25
relative binding affinity for USP25 among SH-1 to SH-4 [1]: higher affinity

KNFNTNLFQLGHKCA [SH-4 peptide]
koff [7]: 0.00484 s⁻¹
Kd [8]: 20.8 µM
